Measured values taken from patent EP0497852B1, “BICYCLO-IMIDAZOLES, PROCESS FOR PRODUCING THEM AND DRUGS CONTAINING THEM” (BOEHRINGER MANNHEIM GMBH, priority 1989, dated 1991).

System: Erythrozyten-Aggregation
Assay: Erythrocyte aggregation in human blood, Mini-Erythrozyten-Aggregometer (Myrenne)
Type: cell-based, Humanblut gesunder Spender
Conditions: 10⁻⁵ M, haematocrit 45 %, difference between control baseline and substance solution, two experiments, different donors, index dimensionless
From the text: Die Bestimmung der Erythrozyten-Aggregation als Parameter für die Hämorheologie erfolgte mit dem Mini-Erythrozyten-Aggregometer der Fa. Myrenne, Roetgen¹). Als Maß gibt dieses Gerät einen dimensionslosen Index an, der mit steigender Aggregationstendenz zunimmt.
Die Untersuchungen wurden mit dem Humanblut gesunder Spender durchgeführt. Das auf einen Haematokrit von 45 % eingestellte Blut wurde mit der Kontrollösung oder den Substanzlösungen inkubiert. Anschließend wurde die Erythrozyten-Aggregation gemessen. Jede Substanz wurde bei einer Konzentration von 10⁻⁵ M untersucht. Pro Substanz wurden zwei Versuche mit dem Blut verschiedener Spender durchgeführt. Es wurde die Differenz der Aggregationsindices zwischen dem Ausgangswert der Kontrollösung und den Werten der Substanzlösung errechnet. Diese Werte sind in der folgenden Tabelle aufgelistet.

| Structure (SMILES) | Differenz der Erythrozytenaggregationsindices (E₂-E₁) |
| --- | --- |
| CCN1C(=O)C(C)(C)c2cc(-c3c[nH]c(-c4ccc(F)cc4)n3)ccc21 [Beispiel 5, 1,3-Dihydro-3,3-dimethyl-1-ethyl-5-[2-(4-fluorphenyl)-4(1H)-imidazolyl]-(2H)-indol-2-on] | -8.7 |
| CC1(C)C(=O)Nc2ccc(-c3c[nH]c(-c4ccc(Cl)cc4)n3)cc21 [Beispiel 6, 1,3-Dihydro-3,3-dimethyl-5-[2-(4-chlorphenyl)-4(1H)-imidazolyl]-(2H)-indol-2-on] | -8.2 |
| CC1(C)CC(=O)Nc2ccc(-c3c[nH]c(-c4ccccc4)n3)cc21 [Beispiel 14, 3,4-Dihydro-4,4-dimethyl-6-[2-phenyl-4(1H)-imidazolyl]-2(1H)-chinolinon] | -7.2 |
| CN1C(=O)C(C)(C)c2cc(-c3c[nH]c(-c4ccccc4)n3)ccc21 [Beispiel 17, 1,3-Dihydro-1,3,3-trimethyl-5-[2-phenyl-4(1H)-imidazolyl]-(2H)-indol-2-on] | -8.6 |
